Test results published in US11963961B2, “Combination therapy comprising an ACC inhibitor” (Gilead Sciences, Inc., priority 2017, dated 2024).

Experiments:
[1] = tested on: non-cirrhotic subjects with NASH; assay: Phase 2 trial of Compound 1 in NASH: acylcarnitine species by UHPLC-MS; assay type: in vivo, human
Experimental: Methods: In this double-blind, placebo-controlled trial, 126 non-cirrhotic subjects with NASH diagnosed noninvasively by MRI proton density fat fraction (PDFF) ≥8% and liver stiffness ≥2.5 kPa by MR elastography (MRE), or historical liver biopsy consistent with NASH and stage 1 to 3 fibrosis, were randomized 2:2:1 to receive Compound 1 20 mg, Compound 1 5 mg, or placebo orally QD for 12 weeks ([…]). Centrally-read MRI-PDFF and MRE, and FibroScan and serum markers of fibrosis were measured at baseline and […]. In some subjects, liver stiffness and hepatic fat content by Controlled Attenuation Parameter (CAP) were assessed using transient elastography (FibroScan®; Echosens, Paris, France) at baseline (i.e. week 0) and week 12. Acylcarnitine species measurements were performed with Ultrahigh Performance Liquid Chromatography-Tandem Mass Spectroscopy (UHPLC-MS; Waters Acquity UHPLC, Waters Corporation, Milford, MA USA) and Hybrid Quadrupole-Orbitrap mass spectometer (Q-Exactive Thermo Fischer Scientific, Waltham, MA, USA) platforms in electrospray ionisation-positive and -negative modes as known.

[2] = tested on: non-cirrhotic subjects with NASH; assay: Phase 2 trial of Compound 1 in NASH: standard lipid tests and NMR LipoProfile lipoproteins in fasting serum; assay type: in vivo, human; settings: for HDL-P (total HDL particles), median / HDL-C, median / VLDL-P (total VLDL particles), median / LDL-C, median / TG, median / TC, median / LDL-P (total LDL particles), median: Compound 1 20 mg daily; for HDL-P (total HDL particles), median: BL 30; for HDL-C, median: BL 42; for VLDL-P (total VLDL particles), median: BL 53; for LDL-C, median: BL 99; for TG, median: BL 160; for TC, median: BL 179; for LDL-P (total LDL particles), median: BL 1397
Experimental: Methods: In this double-blind, placebo-controlled trial, 126 non-cirrhotic subjects with NASH diagnosed noninvasively by MRI proton density fat fraction (PDFF) ≥8% and liver stiffness ≥2.5 kPa by MR elastography (MRE), or historical liver biopsy consistent with NASH and stage 1 to 3 fibrosis, were randomized 2:2:1 to receive Compound 1 20 mg, Compound 1 5 mg, or placebo orally QD for 12 weeks (W12). Centrally-read MRI-PDFF and MRE, and FibroScan and serum markers of fibrosis were measured at baseline and W12. In some subjects, liver stiffness and hepatic fat content by Controlled Attenuation Parameter (CAP) were assessed using transient elastography (FibroScan®; Echosens, Paris, France) at baseline (i.e. week 0) and week 12.
In addition to standard lipid tests (serum triglycerides (“TG”), total cholesterol (“TC”), low density lipoprotein cholesterol (“LDL-C”), and high density lipoprotein cholesterol (“HDL-C”), lipoproteins also were measured by nuclear magnetic resonance spectroscopy (NMR LipoProfile®, LabCorp) in fasting serum samples at baseline (“BL”), week 1 (W1), week 4 (W4), and W12. Changes from BL in Compound 1-treated subjects were evaluated using Wilcoxon sign-rank tests and comparisons vs placebo using Wilcoxon rank-sum tests (all with Bonferroni adjustment).

[3] = Compound 1 5 mg, PDFF Nonresponders
[4] = Compound 1 5 mg, PDFF Responders
[5] = Compound 1 20 mg, PDFF Nonresponders
[6] = Compound 1 20 mg, PDFF Responders

COc1ccccc1[C@H](Cn1c(=O)n(C(C)(C)C(=O)O)c(=O)c2c(C)c(-c3ncco3)sc21)OC1CCOCC1 [Compound 1, (R)-2-(1-(2-(2-methoxyphenyl)-2-((tetrahydro-2H-pyran-4-yl)oxy)ethyl)-5-methyl-6-(oxazol-2-yl)-2,4-dioxo-1,2-dihydrothieno[2,3-d]pyrimidin-3(4H)-yl)-2-methylpropanoic acid]
Acylcarnitine species compared according to PDFF response ([1]; Compound 1 5 mg): minimal changes | 3-hydroxybutyrylcarnitine (1), median % change from baseline [1, 3]: −4.08% | 5-dodecenoylcarnitine (C12:1), median % change from baseline [1, 3]: 15.43% | laurylcarnitine (C12), median % change from baseline [1, 3]: 15.23% | linolenoylcarnitine (C18:3), median % change from baseline [1, 3]: −23.55% | myristoleoylcarnitine (C14:1), median % change from baseline [1, 3]: 25.74% | myristoylcarnitine (C14), median % change from baseline [1, 3]: 12.05% | octadecenedioylcarnitine (C18:1-DC), median % change from baseline [1, 3]: 0% | palmitoleoylcarnitine (C16:1), median % change from baseline [1, 3]: 18.13% | 3-hydroxybutyrylcarnitine (1), median % change from baseline [1, 4]: −18.06% | 5-dodecenoylcarnitine (C12:1), median % change from baseline [1, 4]: 2.08% | laurylcarnitine (C12), median % change from baseline [1, 4]: 1.99% | linolenoylcarnitine (C18:3), median % change from baseline [1, 4]: 6.49% | myristoleoylcarnitine (C14:1), median % change from baseline [1, 4]: −4.71% | myristoylcarnitine (C14), median % change from baseline [1, 4]: −7.50% | octadecenedioylcarnitine (C18:1-DC), median % change from baseline [1, 4]: 33.24% | palmitoleoylcarnitine (C16:1), median % change from baseline [1, 4]: −0.06% | 3-hydroxybutyrylcarnitine (1), median % change from baseline [1, 5]: 34.27% | 5-dodecenoylcarnitine (C12:1), median % change from baseline [1, 5]: 58.85% | laurylcarnitine (C12), median % change from baseline [1, 5]: 36.72% | linolenoylcarnitine (C18:3), median % change from baseline [1, 5]: 20.43% | myristoleoylcarnitine (C14:1), median % change from baseline [1, 5]: 22.42% | myristoylcarnitine (C14), median % change from baseline [1, 5]: 23.92% | octadecenedioylcarnitine (C18:1-DC), median % change from baseline [1, 5]: 36.38% | palmitoleoylcarnitine (C16:1), median % change from baseline [1, 5]: 31.63% | 3-hydroxybutyrylcarnitine (1), median % change from baseline [1, 6]: −13.99% | 5-dodecenoylcarnitine (C12:1), median % change from baseline [1, 6]: −12.39% | laurylcarnitine (C12), median % change from baseline [1, 6]: −3.23% | linolenoylcarnitine (C18:3), median % change from baseline [1, 6]: −17.84% | myristoleoylcarnitine (C14:1), median % change from baseline [1, 6]: −7.22% | myristoylcarnitine (C14), median % change from baseline [1, 6]: −19.99% | octadecenedioylcarnitine (C18:1-DC), median % change from baseline [1, 6]: −11.01% | palmitoleoylcarnitine (C16:1), median % change from baseline [1, 6]: −9.82% | Multiple long and medium-chain acylcarnitine species, PDFF response versus no PDFF response ([1]; Compound 1 20 mg, before administration of the next daily dose): significantly reduced | Asymptomatic Grade 3 or 4 TG elevations (>500 mg/dL), number of subjects ([2]; Compound 1 5 mg): 9 subjects | Median relative change in triglycerides (TG) ([2]; Compound 1 5 mg, W12): +13% | Asymptomatic Grade 3 or 4 TG elevations (>500 mg/dL), number of subjects ([2]; Compound 1 20 mg): 7 subjects | HDL-P (total HDL particles), median ([2]; W1): 30 µmol/L | HDL-C, median ([2]; W1): 39 mg/dL | VLDL-P (total VLDL particles), median ([2]; W1): 72 nmol/L | LDL-C, median ([2]; W1): 102 mg/dL | TG, median ([2]; W1): 191 mg/dL | TC, median ([2]; W1): 192 mg/dL | LDL-P (total LDL particles), median ([2]; W1): 1260 nM | HDL-P (total HDL particles), median ([2]; W4): 30 µmol/L | HDL-C, median ([2]; W4): 39 mg/dL | VLDL-P (total VLDL particles), median ([2]; W4): 52 nmol/L | LDL-C, median ([2]; W4): 96 mg/dL | TG, median ([2]; W4): 188 mg/dL | TC, median ([2]; W4): 184 mg/dL | LDL-P (total LDL particles), median ([2]; W4): 1360 nM | HDL-P (total HDL particles), median ([2]; W12): 30 µmol/L | HDL-C, median ([2]; W12): 42 mg/dL | VLDL-P (total VLDL particles), median ([2]; W12): 52 nmol/L | LDL-C, median ([2]; W12): 99 mg/dL | TG, median ([2]; W12): 177 mg/dL | TC, median ([2]; W12): 182 mg/dL | LDL-P (total LDL particles), median ([2]; W12): 1230 nM | Changes in glucose, insulin, or HbA1c compared to placebo ([2]; Compound 1 20 mg or 5 mg): no significant changes | Median relative change in triglycerides (TG) ([2]; Compound 1 20 mg, W12): +11% | Changes from baseline in HDL-C, TC, and LDL-C ([2]; Compound 1-treated subjects, W12): not significant | Median TG increase ([2]; Compound 1-treated subjects, W12, IQR (−6, 72), p=0.14 vs placebo): 14 mg/dL | Changes in total HDL or total LDL particles ([2]; subjects on Compound 1): No significant changes | Time course of TG elevations ([2]; subjects on Compound 1): peaked at W1 and declined thereafter
